For assay [1], the target named is 5-hydroxytryptamine receptor 2A (Bos taurus, UniProt Q75Z89). Briefly: Binding affinity towards 5-hydroxytryptamine 2 receptor in calf frontal cortex. It is filed as tissue-based.
For assay [2], the target named is T1, Alpha-1A adrenergic receptor (Bos taurus, UniProt P18130).
T1 sequence (P18130 whole entry): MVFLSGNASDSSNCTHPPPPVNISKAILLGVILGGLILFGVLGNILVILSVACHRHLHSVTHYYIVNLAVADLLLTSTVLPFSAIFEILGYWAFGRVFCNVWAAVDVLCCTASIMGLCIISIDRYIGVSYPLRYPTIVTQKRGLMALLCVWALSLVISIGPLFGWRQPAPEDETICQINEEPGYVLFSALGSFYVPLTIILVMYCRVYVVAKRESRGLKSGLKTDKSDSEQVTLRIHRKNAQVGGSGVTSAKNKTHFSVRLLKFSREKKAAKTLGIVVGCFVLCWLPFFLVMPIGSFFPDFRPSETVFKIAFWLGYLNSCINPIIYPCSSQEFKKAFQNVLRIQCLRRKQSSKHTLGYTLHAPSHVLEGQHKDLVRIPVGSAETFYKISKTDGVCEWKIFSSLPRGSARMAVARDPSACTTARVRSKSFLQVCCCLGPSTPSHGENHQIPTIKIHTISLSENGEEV
In words: Binding affinity against alpha-1 adrenergic receptor in calf frontal cortex. Type of assay: tissue-based.

In assay [3] the target is 5-hydroxytryptamine receptor 1B (Rattus norvegicus, UniProt P28564). Briefly: Binding affinity for 5-hydroxytryptamine 1B receptor in rat cortex, striatum and globus pallidus. It is filed as tissue-based.
Sequence of 5-hydroxytryptamine receptor 1B (P28564 whole entry): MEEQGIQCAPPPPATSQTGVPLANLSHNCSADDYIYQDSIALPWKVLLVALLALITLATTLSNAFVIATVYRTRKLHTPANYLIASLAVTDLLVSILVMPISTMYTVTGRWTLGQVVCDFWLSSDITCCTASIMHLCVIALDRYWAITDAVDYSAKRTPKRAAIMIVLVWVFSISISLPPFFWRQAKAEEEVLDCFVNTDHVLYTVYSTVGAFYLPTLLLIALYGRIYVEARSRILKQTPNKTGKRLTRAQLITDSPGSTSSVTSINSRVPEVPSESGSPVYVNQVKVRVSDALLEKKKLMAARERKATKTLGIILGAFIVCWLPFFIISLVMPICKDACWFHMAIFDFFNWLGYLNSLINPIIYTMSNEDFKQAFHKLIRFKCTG
In another assay the target is D(1A) dopamine receptor (Bos taurus, UniProt Q95136). Briefly: Binding affinity towards dopamine receptor D1 in calf striatum. Type of assay: tissue-based.
Sequence of D(1A) dopamine receptor (Q95136 whole entry): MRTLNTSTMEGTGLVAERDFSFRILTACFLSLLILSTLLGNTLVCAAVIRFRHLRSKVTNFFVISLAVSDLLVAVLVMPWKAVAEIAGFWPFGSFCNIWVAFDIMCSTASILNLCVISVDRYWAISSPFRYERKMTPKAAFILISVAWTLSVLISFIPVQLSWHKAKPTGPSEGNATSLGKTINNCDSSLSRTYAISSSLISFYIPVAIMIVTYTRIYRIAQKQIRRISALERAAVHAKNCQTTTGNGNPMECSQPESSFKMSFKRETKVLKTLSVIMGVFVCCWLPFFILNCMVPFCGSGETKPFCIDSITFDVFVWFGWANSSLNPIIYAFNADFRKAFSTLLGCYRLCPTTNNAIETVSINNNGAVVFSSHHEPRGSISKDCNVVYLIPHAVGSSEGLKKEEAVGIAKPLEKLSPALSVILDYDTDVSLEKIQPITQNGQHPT
The target in assay [4] is T2, Alpha-2A adrenergic receptor (Bos taurus, UniProt Q28838).
T2 sequence (Q28838 whole entry): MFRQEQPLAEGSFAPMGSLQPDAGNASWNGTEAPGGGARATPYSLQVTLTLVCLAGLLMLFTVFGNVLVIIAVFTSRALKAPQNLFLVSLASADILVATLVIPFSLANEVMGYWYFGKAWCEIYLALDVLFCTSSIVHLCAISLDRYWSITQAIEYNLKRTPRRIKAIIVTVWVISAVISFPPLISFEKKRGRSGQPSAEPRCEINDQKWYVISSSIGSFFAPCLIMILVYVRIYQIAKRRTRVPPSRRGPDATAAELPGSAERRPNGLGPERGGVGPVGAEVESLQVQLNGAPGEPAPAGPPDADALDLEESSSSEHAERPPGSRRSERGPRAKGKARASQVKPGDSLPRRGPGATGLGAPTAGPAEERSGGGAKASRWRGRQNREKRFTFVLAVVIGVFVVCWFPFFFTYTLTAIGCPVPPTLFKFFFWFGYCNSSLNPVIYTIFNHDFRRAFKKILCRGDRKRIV
In words: Binding affinity against alpha-2 adrenergic receptor in calf frontal cortex. Type of assay: tissue-based.

In assay [5] the target is T3, 5-hydroxytryptamine receptor 1A (Rattus norvegicus, UniProt P19327).
T3 sequence (P19327 whole entry): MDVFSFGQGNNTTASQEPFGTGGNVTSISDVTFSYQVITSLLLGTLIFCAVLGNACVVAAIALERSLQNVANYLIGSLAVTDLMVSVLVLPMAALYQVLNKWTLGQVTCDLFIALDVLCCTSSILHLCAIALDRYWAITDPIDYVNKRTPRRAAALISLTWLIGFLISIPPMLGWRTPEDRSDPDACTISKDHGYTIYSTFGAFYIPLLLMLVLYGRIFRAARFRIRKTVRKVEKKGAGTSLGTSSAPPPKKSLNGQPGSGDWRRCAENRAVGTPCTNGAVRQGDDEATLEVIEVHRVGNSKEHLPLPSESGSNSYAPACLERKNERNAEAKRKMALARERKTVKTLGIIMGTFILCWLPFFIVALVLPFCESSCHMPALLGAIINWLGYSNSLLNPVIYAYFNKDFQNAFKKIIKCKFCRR
Briefly: Binding affinity against 5-hydroxytryptamine 1A (5-HT1A) receptor in rat hippocampus membranes. It is filed as cell membranes, Membrane.

A further assay concerns the target D(2) dopamine receptor (Bos taurus, UniProt P20288). Briefly: Binding affinity against D2 receptor in calf caudate nucleus.

Where only a bound is given, the exact number is not on record here.

Sequence of 5-hydroxytryptamine receptor 2A (Q75Z89 whole entry): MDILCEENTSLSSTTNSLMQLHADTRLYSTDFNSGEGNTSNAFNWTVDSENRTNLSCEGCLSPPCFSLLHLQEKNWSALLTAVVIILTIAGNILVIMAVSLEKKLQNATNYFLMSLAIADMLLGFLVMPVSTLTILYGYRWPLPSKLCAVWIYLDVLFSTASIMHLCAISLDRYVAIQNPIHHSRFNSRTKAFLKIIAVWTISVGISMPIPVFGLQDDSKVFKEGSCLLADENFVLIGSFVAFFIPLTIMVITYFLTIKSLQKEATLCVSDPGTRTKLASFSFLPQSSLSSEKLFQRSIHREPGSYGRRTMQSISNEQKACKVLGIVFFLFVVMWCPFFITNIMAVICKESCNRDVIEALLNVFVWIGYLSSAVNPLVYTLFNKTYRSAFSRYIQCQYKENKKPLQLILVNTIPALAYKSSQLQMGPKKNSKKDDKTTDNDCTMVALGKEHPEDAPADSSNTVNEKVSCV
Sequence of D(2) dopamine receptor (P20288 whole entry): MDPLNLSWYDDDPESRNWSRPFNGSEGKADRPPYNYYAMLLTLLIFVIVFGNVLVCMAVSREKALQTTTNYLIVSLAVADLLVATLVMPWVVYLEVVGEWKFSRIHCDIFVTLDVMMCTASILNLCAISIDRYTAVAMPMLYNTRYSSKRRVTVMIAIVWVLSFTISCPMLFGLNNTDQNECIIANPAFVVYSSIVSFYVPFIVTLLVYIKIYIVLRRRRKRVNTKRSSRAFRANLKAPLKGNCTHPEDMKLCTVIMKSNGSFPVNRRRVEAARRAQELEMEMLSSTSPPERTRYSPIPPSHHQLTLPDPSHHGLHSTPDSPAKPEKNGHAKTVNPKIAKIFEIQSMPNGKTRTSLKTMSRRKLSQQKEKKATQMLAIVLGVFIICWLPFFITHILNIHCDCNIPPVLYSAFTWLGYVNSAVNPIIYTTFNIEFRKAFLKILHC

By IC50 is commonly meant the midpoint of a concentration-inhibition curve. Read a high IC50 as lower potency. Take `CCCN(CCCCN1C(=O)C2CCCC2C1=O)C1COc2cccc(OC)c2C1` (single isomer, unassigned; (-)): the IC50 in assay [1] is 3 µM; in assay [2] it was 8 µM; in assay [3], 30 µM; on D(1A) dopamine receptor, 30 µM; in assay [4] it was 5 µM; in assay [5] it was 0.001 µM. The 50% inhibitory concentration (IC50) on D(2) dopamine receptor stood at 0.01 µM.
For `CCCN(CCN1C(=O)c2ccccc2C1=O)C1COc2cccc(OC)c2C1` (stereo unspecified), the IC50 in assay [1] is above 100 µM; in assay [2], above 1000 µM; in assay [3], above 1000 µM; on D(1A) dopamine receptor it was above 1000 µM; in assay [4], above 1000 µM; in assay [5], 0.8 µM. This compound also showed an IC50 on D(2) dopamine receptor of 10 µM.
For the compound `CCCN(CCNS(=O)(=O)c1ccc(C)cc1)C1COc2cccc(OC)c2C1` (single isomer, unassigned; (+)), the IC50 in assay [1] is above 1000 µM; in assay [2], 100 µM; in assay [3] it was above 1000 µM; on D(1A) dopamine receptor, 100 µM; in assay [4], 50 µM; in assay [5] it was 0.008 µM. This compound also had an IC50 on D(2) dopamine receptor of 0.5 µM.
For `CCCN(CCCCN1C(=O)c2ccccc2S1(=O)=O)C1COc2cccc(OC)c2C1` (stereo unspecified), the IC50 in assay [1] amounted to 10 µM; in assay [2] it was 1 µM; in assay [3], 1 µM; on D(1A) dopamine receptor, 50 µM; in assay [4], 40 µM; in assay [5], 0.001 µM. The compound also gave an IC50 at D(2) dopamine receptor of 0.09 µM.
With `CCCN(CCNC(C)=O)C1COc2cccc(OC)c2C1` (stereo unspecified), the 50% inhibitory concentration (IC50) is above 1000 µM in assay [1]; above 1000 µM in assay [2]; 60 µM in assay [3]; above 1000 µM on D(1A) dopamine receptor; 10 µM in assay [4]; 0.04 µM in assay [5]. This compound came in with an IC50 on D(2) dopamine receptor of 0.6 µM.
Consider `CCCN(CCCCNC(=O)c1ccc(F)cc1)C1COc2cccc(OC)c2C1` (stereo unspecified), for which the IC50 is 3 µM in assay [1]; 2 µM in assay [2]; 3 µM in assay [3]; 20 µM at D(1A) dopamine receptor; 4 µM in assay [4]; 0.0004 µM in assay [5]. The compound also registered an IC50 at D(2) dopamine receptor of 0.007 µM.
Take `CCCN(CCC)C1COc2cccc(OC)c2C1` (single isomer, unassigned; (+)): the IC50 in assay [1] was 9.7 µM; in assay [2], 2.3 µM; in assay [3], 0.51 µM; at D(1A) dopamine receptor it was above 1000 µM; in assay [4] it was 9.1 µM; in assay [5], 0.002 µM. At D(2) dopamine receptor, this compound showed an IC50 of 0.14 µM.
`CCCN(CCCCN1C(=O)CC(C)(C)CC1=O)C1COc2cccc(OC)c2C1` (stereo unspecified): the IC50 in assay [1] was found to be 6 µM; in assay [2], 6 µM; in assay [3], 10 µM; at D(1A) dopamine receptor, 80 µM; in assay [4] it was 0.4 µM; in assay [5] it was 0.004 µM. The compound also returned an IC50 at D(2) dopamine receptor of 0.04 µM.
For the compound `CCCN(CCCCN1C(=O)c2ccccc2C1=O)C1COc2cccc(OC)c2C1` (stereo unspecified), the IC50 was 30 µM in assay [1]; 5 µM in assay [2]; 0.4 µM in assay [3]; 40 µM on D(1A) dopamine receptor; 2 µM in assay [4]; 0.05 µM in assay [5]. The compound also came in with an IC50 on D(2) dopamine receptor of 0.03 µM.
In the case of `CCCN(CCCCN1C(=O)C2CCCC2C1=O)C1COc2cccc(OC)c2C1` (single isomer, unassigned; (+)), the IC50 in assay [1] is 10 µM; in assay [2], 3 µM; in assay [3] it was 10 µM; on D(1A) dopamine receptor, 50 µM; in assay [4] it was 5 µM; in assay [5] it was 0.008 µM. The same compound displayed a half-maximal inhibitory concentration (IC50) on D(2) dopamine receptor of 0.1 µM.
Take `CCCN(CCCCNS(=O)(=O)c1ccc(C)cc1)C1COc2cccc(OC)c2C1` (single isomer, unassigned; (-)): the concentration for half-maximal inhibition (IC50) in assay [1] was determined as 5 µM; in assay [2], 7 µM; in assay [3], 20 µM; on D(1A) dopamine receptor, 20 µM; in assay [4] it was 2 µM; in assay [5], 0.02 µM. The compound further returned an IC50 on D(2) dopamine receptor of 0.06 µM.
For the compound `CCCN(CCC)C1COc2cccc(OC)c2C1` (stereo in doubt; 4), the 50% inhibitory concentration (IC50) in assay [1] amounted to 60 µM; in assay [2] it was 80 µM; in assay [3], 20 µM; at D(1A) dopamine receptor, 100 µM; in assay [4], 4 µM; in assay [5], 0.02 µM. On D(2) dopamine receptor, this compound came in with an IC50 of 0.05 µM.
For the compound `CCCN(CCC)C1COc2cccc(O)c2C1` (stereo unspecified), the IC50 was above 100 µM in assay [1]; 100 µM in assay [2]; above 100 µM in assay [3]; 100 µM on D(1A) dopamine receptor; 2 µM in assay [4]; 0.004 µM in assay [5]. Besides, on D(2) dopamine receptor, the IC50 was determined as 0.4 µM.
As to `COc1cccc2c1CC(NCCCCN1C(=O)CC3(CCCC3)CC1=O)CO2` (stereo unspecified), the IC50 in assay [1] amounted to 1 µM; in assay [2], 10 µM; in assay [3], 20 µM; on D(1A) dopamine receptor, 20 µM; in assay [4], 20 µM; in assay [5], 0.02 µM. On D(2) dopamine receptor, this compound registered an IC50 of 0.9 µM.
With `CCCN(CCC)C1COc2ccccc2C1` (stereo unspecified), the IC50 was 80 µM in assay [1]; above 1000 µM in assay [2]; above 1000 µM in assay [3]; above 1000 µM on D(1A) dopamine receptor; 20 µM in assay [4]; 0.4 µM in assay [5]. The IC50 at D(2) dopamine receptor worked out at 0.06 µM.
For `CCCN(CCCN1C(=O)c2ccccc2C1=O)C1COc2cccc(OC)c2C1` (stereo unspecified), the IC50 in assay [1] amounted to 8 µM; in assay [2], 4 µM; in assay [3], 3 µM; on D(1A) dopamine receptor, 40 µM; in assay [4] it was 1 µM; in assay [5], 0.1 µM. Also, the IC50 at D(2) dopamine receptor came out at 0.08 µM.
With `CCCN(CCCCN1C(=O)C2CCCC2C1=O)C1COc2cccc(OC)c2C1` (stereo in doubt; 9k), the IC50 in assay [1] was found to be 9 µM; in assay [2], 7 µM; in assay [3] it was 20 µM; on D(1A) dopamine receptor it was 40 µM; in assay [4] it was 5 µM; in assay [5] it was 0.002 µM. The same compound came in with an IC50 at D(2) dopamine receptor of 0.02 µM.
In the case of `CCCN(CCCCN1CC2CCCC2C1=O)C1COc2cccc(OC)c2C1` (stereo unspecified), the IC50 came to 2 µM in assay [1]; 5 µM in assay [2]; 30 µM in assay [3]; 60 µM on D(1A) dopamine receptor; 4 µM in assay [4]; 0.001 µM in assay [5]. The half-maximal inhibitory concentration (IC50) on D(2) dopamine receptor came to 0.003 µM.
With `CCCN(CCCON1C(=O)CC2(CCCC2)CC1=O)C1COc2cccc(OC)c2C1` (stereo unspecified), the IC50 in assay [1] was 4 µM; in assay [2], 9 µM; in assay [3], 40 µM; at D(1A) dopamine receptor, 20 µM; in assay [4], 2 µM; in assay [5] it was 0.001 µM. The same compound had an IC50 on D(2) dopamine receptor of 0.02 µM.
With `O=C1CC2(CCCC2)CC(=O)N1CCCCN1CCN(c2ncccn2)CC1` [BUSPIRONE], the 50% inhibitory concentration (IC50) in assay [1] stood at 10 µM; in assay [2], 16 µM; at D(1A) dopamine receptor, 27 µM; in assay [4] it was 10 µM; on D(2) dopamine receptor, 4 µM.
In the case of `CCCN(CCCCNC(=O)c1ccccc1OC)C1COc2cccc(OC)c2C1` (stereo unspecified), the IC50 in assay [1] was determined as 4 µM; in assay [2], 3 µM; in assay [3], 1 µM; in assay [4] it was 0.1 µM; in assay [5], 0.001 µM; at D(2) dopamine receptor, 0.01 µM.
Regarding `CCC[N+](C)(CCCCN1C(=O)CC2(CCCC2)CC1=O)C1COc2cccc(OC)c2C1` (stereo unspecified), the concentration for half-maximal inhibition (IC50) was above 1000 µM in assay [1]; 70 µM in assay [2]; above 1000 µM in assay [3]; 100 µM at D(1A) dopamine receptor; 1000 µM in assay [4]; 0.3 µM in assay [5]. Moreover, the IC50 on D(2) dopamine receptor amounted to 1 µM.
